# According to patent US10183009B2, “Therapeutic compounds and uses thereof” (GENENTECH, INC., priority 2014, dated 2019):
# Target: BRD9 (Homo sapiens (Human), UniProt Q9H8M2)
# Experiment: BRD9 AlphaLisa Binding Assay
# Method: After 20 minutes incubation at room temperature AlphaLisa Streptavidin Acceptor Beads (Perkin-A[…]) and AlphaLisa Nickel donor beads (Perkin AS 10 ID) were added to a final concentration of 15 ug/mL each.
# Sequence of BRD9 (Q9H8M2 134-239 limits assumed): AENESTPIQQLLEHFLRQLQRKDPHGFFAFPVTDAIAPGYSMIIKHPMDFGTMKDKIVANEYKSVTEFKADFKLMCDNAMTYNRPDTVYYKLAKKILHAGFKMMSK
row,IC50 [nM],Compound
1,320,"CC(C)CCn1cc(-c2cccc(C(=O)N(C)C)c2)c2cc[nH]c2c1=O [Example 10, 3-(6-isopentyl-7-oxo-1H-pyrrolo[2,3-c]pyridin-4-yl)-N,N-dimethyl-benzamide]"
2,94,"C/C=C/Cn1cc(-c2cc(F)cc(C(=O)N(C)C)c2)c2cc[nH]c2c1=O [Example 19, 3-[6-[(E)-but-2-enyl]-7-oxo-1H-pyrrolo[2,3-c]pyridin-4-yl]-5-fluoro-N,N-dimethyl-benzamide]"
3,29,"C/C=C/Cn1cc(-c2ccc(C(=O)NC)cc2)c2cc[nH]c2c1=O [Example 24, 4-[6-[(E)-but-2-enyl]-7-oxo-1H-pyrrolo[2,3-c]pyridin-4-yl]-N-methyl-benzamide]"
4,510,"C/C=C/Cn1cc(-c2cccc(C(N)=O)c2)c2cc[nH]c2c1=O [Example 30, 3-[6-[(E)-but-2-enyl]-7-oxo-1H-pyrrolo[2,3-c]pyridin-4-yl]benzamide]"
5,22,"C/C=C/Cn1cc(-c2ccc(NS(C)(=O)=O)cc2)c2cc[nH]c2c1=O [Example 34, N-[4-[6-[(E)-but-2-enyl]-7-oxo-1H-pyrrolo[2,3-c]pyridin-4-yl]phenyl]methanesulfonamide]"
6,130,"C/C=C/Cn1cc(-c2cc(C(=O)N(C)C)ccc2F)c2cc[nH]c2c1=O [Example 41, 3-[6-[(E)-but-2-enyl]-7-oxo-1H-pyrrolo[2,3-c]pyridin-4-yl]-4-fluoro-N,N-dimethyl-benzamide]"
7,82,"C/C=C/Cn1cc(-c2cccc(C(=O)N(C)C)c2F)c2cc[nH]c2c1=O [Example 42, 3-[6-[(E)-but-2-enyl]-7-oxo-1H-pyrrolo[2,3-c]pyridin-4-yl]-fluoro-N,N-dimethyl-benzamide]"
8,13,"C/C=C/Cn1cc(-c2ccc(C(=O)N3CCOCC3)c(Cl)c2)c2cc[nH]c2c1=O [Example 51, 6-[(E)-but-2-enyl]-4-[3-chloro-4-(morpholine-4-carbonyl)phenyl]-1H-pyrrolo[2,3-c]pyridin-7-one]"
9,46,"C/C=C/Cn1cc(-c2ccc(C(=O)N3CCCC3)c(Cl)c2)c2cc[nH]c2c1=O [Example 52, 6-[(E)-but-2-enyl]-4-[3-chloro-4-(pyrrolidine-1-carbonyl)phenyl]-1H-pyrrolo[2,3-c]pyridin-7-one]"
10,56,"C/C=C/Cn1cc(-c2cc(C(=O)N(C)C)ccc2OC)c2cc[nH]c2c1=O [Example 64, 3-[6-[(E)-but-2-enyl]-7-oxo-1H-pyrrolo[2,3-c]pyridin-4-yl]-4-methoxy-N,N-dimethyl-benzamide]"
11,35,"C/C=C/Cn1cc(-c2cc(C(=O)NC)ccc2OC)c2cc[nH]c2c1=O [Example 67, 3-[6-[(E)-but-2-enyl]-7-oxo-1H-pyrrolo[2,3-c]pyridin-4-yl]-4-methoxy-N-methyl-benzamide]"
12,39,"C/C=C/Cn1cc(-c2cc(C(=O)N3CCCC3)ccc2OC)c2cc[nH]c2c1=O [Example 68, 6-[(E)-but-2-enyl]-4-[2-methoxy-5-(pyrrolidine-1-carbonyl)phenyl]-1H-pyrrolo[2,3-c]pyridin-7-one]"
13,28,"C/C=C/Cn1cc(-c2cc(C(=O)NCC(C)C)ccc2OC)c2cc[nH]c2c1=O [Example 70, 3-[6-[(E)-but-2-enyl]-7-oxo-1H-pyrrolo[2,3-c]pyridin-4-yl]-N-isobutyl-4-methoxy-benzamide]"
14,23,"C/C=C/Cn1cc(-c2cc(C(=O)NCCN(C)C)ccc2OC)c2cc[nH]c2c1=O [Example 72, 3-[6-[(E)-but-2-enyl]-7-oxo-1H-pyrrolo[2,3-c]pyridin-4-yl]-N-[2-(dimethylamino)ethyl]-4-methoxy-benzamide]"
15,35,"C/C=C/Cn1cc(-c2cc(C(=O)NCCO)ccc2OC)c2cc[nH]c2c1=O [Example 73, 3-[6-[(E)-but-2-enyl]-7-oxo-1H-pyrrolo[2,3-c]pyridin-4-yl]-N-(2-hydroxyethyl)-4-methoxy-benzamide]"
16,27,"C/C=C/Cn1cc(-c2cc(C(=O)NCCC)ccc2OC)c2cc[nH]c2c1=O [Example 74, 3-[6-[(E)-but-2-enyl]-7-oxo-1H-pyrrolo[2,3-c]pyridin-4-yl]-4-methoxy-N-propyl-benzamide]"
17,65,"CCCCn1cc(-c2cc(C(=O)N3CC4(CN(C(C)=O)C4)C3)ccc2OC)c2cc[nH]c2c1=O [Example 78, 4-[5-(2-acetyl-2,6-diazaspiro[3.3]heptane-6-carbonyl)-2-methoxy-phenyl]-6-butyl-1H-pyrrolo[2,3-c]pyridin-7-one]"
18,73,"CCCCn1cc(-c2ccc(C(C)(C)O)cc2OC)c2cc[nH]c2c1=O [Example 80, 6-butyl-4-[4-(1-hydroxy-1-methyl-ethyl)-2-methoxy-phenyl]-1H-pyrrolo[2,3-c]pyridin-7-one]"
19,43,"CCCCn1cc(-c2ccc(C(C)(C)O)cc2)c2cc[nH]c2c1=O [Example 82, 6-butyl-4-[4-(1-hydroxy-1-methyl-ethyl)phenyl]-1H-pyrrolo[2,3-c]pyridin-7-one]"
20,66,"CCCCn1cc(-c2cc(C(=O)N(C)C)ccc2OC)c2cc(C)[nH]c2c1=O [Example 87, 3-(6-butyl-2-methyl-7-oxo-1H-pyrrolo[2,3-c]pyridin-4-yl)-4-methoxy-N,N-dimethyl-benzamide]"
21,300,"COc1ccc(C(=O)N(C)C)cc1-c1cn(CCC2CC2)c(=O)c2[nH]c(C)cc12 [Example 88, 3-[6-(2-cyclopropylethyl)-2-methyl-7-oxo-1H-pyrrolo[2,3-c]pyridin-4-yl]-4-methoxy-N,N-dimethyl-benzamide]"
22,13,"C/C=C/Cn1cc(-c2ccc(C(=O)N3CCCC3)cc2)c2cc(C)[nH]c2c1=O [Example 91, 6-[(E)-but-2-enyl]-2-methyl-4-[4-(pyrrolidine-1-carbonyl)phenyl]-1H-pyrrolo[2,3-c]pyridin-7-one]"
23,10,"C/C=C/Cn1cc(-c2ccc(C(=O)N3CCCC3)c(Cl)c2)c2cc(C)[nH]c2c1=O [Example 92, 6-[(E)-but-2-enyl]-4-[3-chloro-4-(pyrrolidine-1-carbonyl)phenyl]-2-methyl-1H-pyrrolo[2,3-c]pyridin-7-one]"
24,34,"C/C=C/Cn1cc(-c2ccc(C(=O)N3CCOCC3)c(F)c2F)c2cc(C)[nH]c2c1=O [Example 93, 6-[(E)-but-2-enyl]-4-[2,3-difluoro-4-(morpholine-4-carbonyl)phenyl]-2-methyl-1H-pyrrolo[2,3-c]pyridin-7-one]"
25,32,"C/C=C/Cn1cc(-c2cnc(C(=O)N3CCOCC3)c(Cl)c2)c2cc(C)[nH]c2c1=O [Example 98, 6-[(E)-but-2-enyl]-4-[5-chloro-6-(morpholine-4-carbonyl)-3-pyridyl]-2-methyl-1H-pyrrolo[2,3-c]pyridin-7-one]"
26,9,"C/C=C/Cn1cc(-c2ccc(C(=O)N3CCN(C)CC3)c(Cl)c2)c2cc(C)[nH]c2c1=O [Example 99, 6-[(E)-but-2-enyl]-4-[3-chloro-4-(4-methylpiperazine-1-carbonyl)phenyl]-2-methyl-1H-pyrrolo[2,3-c]pyridin-7-one]"
27,12,"C=CCn1cc(-c2ccc(C(=O)N3CCOCC3)c(Cl)c2)c2cc(C)[nH]c2c1=O [Example 101, 6-allyl-4-[3-chloro-4-(morpholine-4-carbonyl)phenyl]-2-methyl-1H-pyrrolo[2,3-c]pyridin-7-one]"
28,46,"C/C=C/Cn1cc(-c2ncc(C(=O)N3CCOCC3)cc2OC)c2cc(C)[nH]c2c1=O [Example 103, 6-[(E)-but-2-enyl]-4-[3-methoxy-5-(morpholine-4-carbonyl)-2-pyridyl]-2-methyl-1H-pyrrolo[2,3-c]pyridin-7-one]"
